In patent US12559732B2, “Compositions and methods for producing human milk oligosaccharides” (NORTH CAROLINA STATE UNIVERSITY, priority 2020, dated 2026):

Key:
[1] = tested on: Hamamotoa (Sporobolomyces) singularis β-hexosyl-transferase (BHT, EC 3.2.1.21), native; conditions: lactose concentrations above 20%; cited from earlier work
[2] = target: Hamamotoa (Sporobolomyces) singularis β-hexosyl-transferase (BHT), truncated variant rBHT(32-594)-HIS (residues 1-31 removed); MFα-rBht(32-594)-HIS SEQ ID NO: 48 (Hamamotoa singularis, UniProt Q564N5); test: Kinetics of ONP-Glu cleavage by purified soluble rBHT(32-594)-HIS; assay type: biochemical; conditions: 0.08-10.4 mM ONP-Glu, 20, 30, 42 and 55° C.
Excerpt: (§1) K. pastoris Transformation and Expression. […] Expression and purification have been described previously.
(§2) Kinetic parameters of secreted soluble rBHT variants.

[3] = target: T1, Hamamotoa (Sporobolomyces) singularis β-hexosyl-transferase (BHT), truncated variant rBHT(57-594)-HIS (residues 1-56 removed); MFα-rBht(57-594)-HIS SEQ ID NO: 52 (Hamamotoa singularis, UniProt Q564N5); conditions: 0.08-10.4 mM ONP-Glu, 20, 30, 42 and 55° C.
T1 sequence (Q564N5 57-594): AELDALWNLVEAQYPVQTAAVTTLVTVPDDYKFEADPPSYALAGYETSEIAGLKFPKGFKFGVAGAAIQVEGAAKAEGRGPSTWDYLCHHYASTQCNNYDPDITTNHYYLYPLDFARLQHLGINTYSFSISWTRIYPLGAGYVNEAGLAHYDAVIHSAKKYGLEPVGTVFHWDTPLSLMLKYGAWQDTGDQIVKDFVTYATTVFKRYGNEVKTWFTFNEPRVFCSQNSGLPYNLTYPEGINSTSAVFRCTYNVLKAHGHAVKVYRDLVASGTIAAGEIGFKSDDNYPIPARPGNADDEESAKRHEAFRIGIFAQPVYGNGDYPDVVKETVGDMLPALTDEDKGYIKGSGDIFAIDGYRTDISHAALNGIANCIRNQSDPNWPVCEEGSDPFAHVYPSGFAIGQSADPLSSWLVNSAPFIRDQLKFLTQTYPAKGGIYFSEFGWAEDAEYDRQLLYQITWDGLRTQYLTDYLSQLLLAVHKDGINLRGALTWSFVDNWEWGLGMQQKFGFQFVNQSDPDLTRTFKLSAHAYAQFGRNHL

[4] = target: T2, Hamamotoa (Sporobolomyces) singularis β-hexosyl-transferase (BHT), truncated variant rBHT(23-594)-HIS (residues 1-22 removed); MFα-rBht(23-594)-HIS SEQ ID NO: 38 (Hamamotoa singularis, UniProt Q564N5); test: Kinetics of ONP-Glu cleavage by purified soluble rBHT(23-594)-HIS; assay type: biochemical; conditions: 0.08-10.4 mM ONP-Glu, 20, 30, 42 and 55° C.
T2 construct: codon-optimized gene
Excerpt: as §1, §2

[5] = target: Hamamotoa (Sporobolomyces) singularis β-hexosyl-transferase (BHT), truncated variant rBHT(54-594)-HIS (residues 1-53 removed); MFα-rBht(54-594)-HIS SEQ ID NO: 50 (Hamamotoa singularis, UniProt Q564N5); test: Kinetics of ONP-Glu cleavage by purified soluble rBHT(54-594)-HIS; assay type: biochemical; conditions: 0.08-10.4 mM ONP-Glu, 20, 30, 42 and 55° C.
Excerpt: as §1, §2

| SMILES | inhibition by lactose [1] | Km (affinity for the substrate ONP-Glu) [2] | kcat (turnover activity, ONP-Glu) [2] | Km (affinity for the substrate ONP-Glu) [3] | kcat (turnover activity, ONP-Glu) [3] | Km (affinity for the substrate ONP-Glu) [4] | kcat (turnover activity, ONP-Glu) [4] | Km (affinity for the substrate ONP-Glu) [5] | kcat (turnover activity, ONP-Glu) [5] |
| --- | --- | --- | --- | --- | --- | --- | --- | --- | --- |
| OC[C@H]1O[C@@H](O[C@H]2[C@H](O)[C@@H](O)C(O)O[C@@H]2CO)[C@H](O)[C@@H](O)[C@H]1O (stereo partly drawn) [lactose] | does not appear to be inhibited by lactose concentrations above 20% | – | – | – | – | – | – | – | – |
| O=[N+]([O-])c1ccccc1O[C@@H]1O[C@H](CO)[C@@H](O)[C@H](O)[C@H]1O [ONP-Glu] | – | retain similar affinity for the substrate ONP-Glu (Km) | retain similar affinity for the substrate ONP-Glu (Km) and turnover activity (kcat) | retain similar affinity for the substrate ONP-Glu (Km) | retain similar affinity for the substrate ONP-Glu (Km) and turnover activity (kcat) | retain similar affinity for the substrate ONP-Glu (Km) | retain similar affinity for the substrate ONP-Glu (Km) and turnover activity (kcat) | retain similar affinity for the substrate ONP-Glu (Km) | retain similar affinity for the substrate ONP-Glu (Km) and turnover activity (kcat) |
